Reference: patent US8715949B2, “Applications of the binding interaction of proanthocyanidins with bacteria and bacterial components” (priority 2006, dated 2014)

Legend:
[1] = Stationary LPS-FITC binding assay on glass waveguide-immobilized PACs; set-up: species or system E. coli; details: patterned from 10 mg/mL solutions; LPS-FITC incubated 1 hour
Description: To determine the ability of PAC materials to effectively bind bacteria and bacterial cell components upon immobilization to a solid support, PACs from cranberry and grape juices were covalently attached to the surface of a glass microscope slide (waveguide) using a modification of a common technique used for protein immobilization (Rowe et al., Anal. Chem., 71, 3846 (1999)). Catechin monomer and buffer only areas were also included as controls. Briefly, the waveguides, glass microscope slides (Daigger, Wheeling, Ill.), were cleaned by immersion in potassium hydroxide/methanol solution (Cras et al., Biosens. Bioelectron., 14, 683 (1999)) followed by rinsing and drying. The clean waveguides were then incubated with 2% (3-mercaptopropyl)triethoxysilane (Pierce Chemicals, Rockford, Ill.) in toluene for 45 minutes followed by rinsing and drying. The slides were immersed in 1.8 mM N-[p-maleimidophenyl]isocyanate (PMPI) in ethanol for 1 hour. The maleimide-group of PMPI reacts with the sulfhydryl-group provided by the silane reaction leaving the isocyanate-group free to react with the hydroxyl-groups of PACs. […]
The ability of the immobilized PACs to bind LPS was investigated using a stationary assay. […] Slides were imaged using evanescent wave fluorescence spectroscopy with excitation at 496 nm and emission collected above 515 nm. […]

[2] = Pull-down of FITC-LPS by PAC beads after equilibration with lipid A; type: binding, E. coli; details: lipid A concentrations as high as 100 μM
Description: Fluorescence-based pull down assays for lipopolysaccharide (LPS) were conducted in 50 mM TRIS at pH 8.0 using Sepharose-immobilized PACs and agarose-immobilized polymyxin B (Sigma-Aldrich, St. Louis, Mo.). Immobilized capture molecules and LPS were incubated at room temperature for 1 hour with constant agitation followed by rinsing and transfer to a 96-well plate. The fluorescence of the FITC-labeled LPS (from E. coli 055:B5; Sigma-Aldrich) was measured using a Tecan XSafire monochrometer-based micro plate reader at 495 nm excitation and 520 nm emission (5 nm bandwidths).
To further investigate this potential interaction, an assay for the presence of FITC-LPS using PAC-beads was conducted after equilibration of the PAC beads with varying concentrations of lipid A (FIG. 11). Assays were conducted with 3 μg/mL FITC-LPS (approx. 3 nM).

[3] = system: HEK 293 cells stably expressing human CD14 and TLR4/MD2; assay: LPS membrane binding in HEK-CD14-TLR4/MD2 cells; type: cell-based; details: 25 nM LPS, 1.5 h, 37° C.; 0.5 μM PAC; antibodies 500 nM in binding sites
Description: Human embryonic kidney cells (HEK 293) stably expressing human CD14 and TLR4/MD2 (HEK-CD14-TLR4/MD2; Invivogen) were grown in chambered wells and incubated with 25 nM LPS (E. coli serotype 055:B5, Sigma) in the absence or presence of 0.5 μM LH20 PAC (Dial>6K) for 1.5 h at 37° C. […] After incubation, the cells were washed with PBS (10 min) twice and either fixed (with 3.7% paraformaldehyde) to assess LPS membrane binding or fixed and permeabilized (with 0.1% Triton X-100) to determine LPS internalization. After blocking with 1% normal goat serum, membrane bound or internalized LPS was detected using a goat anti-LPS antibody (O/K serotype-specific, Abeam) conjugated to fluorescein. Nuclei were counterstained with DAPI. Imaging was performed using an Olympus IX-71 microscope. The relative amounts of membrane-associated or intracellular fluorescence were quantified by image analysis using Image J software (NIH, v. 1.37). Data is reported as the mean channel fluorescence from membrane-associated or internalized LPS and represents the analysis of 10 to 20 cells from each sample (minimum 10 measurements per each cell). Merged images were produced using Photoshop CS2 (ver. 9).

HEK-CD14-TLR4/MD2 cells = assay: Cytotoxicity, cell proliferation assay (CellTiter96); type: cell-based, human; details: 48 h culture
Description: Cellular toxicity was measured using a […] cell proliferation assay (CellTiter96™, Promega). HEK-CD14-TLR4/MD2 cells were seeded into the wells of a 96-well plate (1×10^4 cells/well) and cultured with a dose range of test compounds for 48 h prior to assay according to the manufacturer's instructions.

Row | Substance | binding of LPS-FITC by substance immobilized on glass waveguide [1] | inhibition of FITC-LPS binding by immobilized PACs at high lipid A concentration [2] | decrease in membrane-bound LPS [3] | concentrations at which toxicity was not elicited (HEK-CD14-TLR4/MD2 cells)
1 | catechin | no binding even at the highest concentrations tested | – | – | –
2 | diphosphoryl lipid A | – | ≤ 80% | did not significantly reduce LPS membrane binding | below 3 μM
